For 18 molecules, IC50 results are on record in patent US8895571B2, “Isoindolinone and pyrrolopyridinone derivatives as Akt inhibitors” (Incyte Corporation, priority 2011, dated 2014).

As a reminder, the IC50 is the midpoint of a concentration-inhibition curve. A higher IC50 goes with weaker potency in that assay.

The test system of assay [1] is LNCaP cells (human prostate tumor cell line). As to the kind of experiment: Akt LNCaP proliferation assay (MTS). It is filed as cell-based. The following applies: 48 hours. The method, then: LNCaP cells (human prostate tumor cell line) were plated in 96 well plates (COSTAR, Corning, N.Y.) in 50 μL at 10,000 cells/well in RPMI (Media Tech, Manassas, Va.), 2% fetal bovine serum (Hyclone/Thermo, Logan, Utah) and incubated overnight at 37° C., 5% CO2. […] of compound solution were added at final concentrations of 1000 nM to 0.5 nM in 3 fold dilutions for IC50 determination and plates further incubated for 48 hours. 100 μL of Cell Titer 96® Aqueous reagent, from an MTS colorimetric method for determining the number of viable cells in proliferation (Cell titer 96, Promega, Madison, Wis.) was added for 2 hours at 37° C., 5% CO2. Each plate was mixed well and read on a SpectroMax M5 automated plate reader (Molecular Devices, Sunnyvale Calif.). The ability of the compound to inhibit proliferation was reported as the inhibitor concentration required for 50% inhibition (IC50 values) of total cell proliferation. See Table 8 for data related to compounds of the examples.

Another assay deals with T1, Full length Akt2 (Homo sapiens, UniProt P31751).
T1 construct: Full length Akt1 (cat #P2999), Akt2 (cat #PV3184); purchased PerkinElmer PV3184
As to the kind of experiment: In vitro Akt kinase enzymatic assay (HTRF), Akt2. Type of assay: biochemical. The following applies: 0.6 nM Akt2, substrate solution with 5 mM ATP, 25° C. 1 hr. In a few lines:
(§1)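 Full-length enzyme (0.4 nM Akt1 or 0.6 nM Akt2/Akt3 in the enzyme solution) was combined with a substrate solution of 0.1 μM ULight-Crosstide plus 5 mM ATP in pH 7.8 HEPES/MgCl2/DTT/Tween20 buffer and reacted 1 hr at 25° C. The EDTA stop contained Eu anti-phospho-Crosstide; IC50 was fitted from 11-point HTRF inhibition curves.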
In general terms: TR-FRET usually uses a lanthanide donor and a delayed reading to cut background.

For a further assay, the target named is T2, Full length Akt3 (Homo sapiens, UniProt Q9Y243).
T2 construct: Full length Akt1 (cat #P2999), Akt2 (cat #PV3184), Akt3 (cat #PV3185); purchased PerkinElmer PV3185
As to the kind of experiment: In vitro Akt kinase enzymatic assay (HTRF), Akt3. Type of assay: biochemical. The following applies: 0.6 nM Akt3, substrate solution with 5 mM ATP, 25° C. 1 hr. In a few lines: as §1

The target in the next assay is T3, Full length Akt1 (Homo sapiens, UniProt P31749).
T3 construct: Full length Akt1 (cat #P2999); purchased PerkinElmer P2999
As to the kind of experiment: In vitro Akt kinase enzymatic assay (HTRF), Akt1. It is filed as biochemical. The following applies: 0.4 nM Akt1, substrate solution with 5 mM ATP, 25° C. 1 hr. An outline of the steps:
as §1

A further assay concerns the target T4, Full length PKA (Homo sapiens, UniProt P17612).
T4 construct: Full length PKA (cat #P2912); purchased Invitrogen P2912
As to the kind of experiment: PKA in vitro enzymatic assay (HTRF). It is filed as biochemical. To be noted: 0.035 nM enzyme solution, substrate solution with 5 mM ATP, 25° C. 1 hr. An outline of the steps: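 Reaction buffer was 50 mM HEPES pH 7.8, 10 mM MgCl2, 5 mM DTT and 0.005% Tween20. Enzyme solution was 0.035 nM, and substrate solution was 0.1 μM fluorescein-CREBtide with 5 mM ATP. After 1 h at 25°C, EDTA plus Tb anti-pS133 antibody was added, TR-FRET was read, and IC50 was fitted from 11-point, 3-fold % inhibition curves.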

The mark [2] stands for this setting: 2% fetal bovine serum, class symbols.
The mark [3] stands for this setting: given as a bound, final concentrations 1000 nM to 0.5 nM.

T2 sequence (Q9Y243 whole entry): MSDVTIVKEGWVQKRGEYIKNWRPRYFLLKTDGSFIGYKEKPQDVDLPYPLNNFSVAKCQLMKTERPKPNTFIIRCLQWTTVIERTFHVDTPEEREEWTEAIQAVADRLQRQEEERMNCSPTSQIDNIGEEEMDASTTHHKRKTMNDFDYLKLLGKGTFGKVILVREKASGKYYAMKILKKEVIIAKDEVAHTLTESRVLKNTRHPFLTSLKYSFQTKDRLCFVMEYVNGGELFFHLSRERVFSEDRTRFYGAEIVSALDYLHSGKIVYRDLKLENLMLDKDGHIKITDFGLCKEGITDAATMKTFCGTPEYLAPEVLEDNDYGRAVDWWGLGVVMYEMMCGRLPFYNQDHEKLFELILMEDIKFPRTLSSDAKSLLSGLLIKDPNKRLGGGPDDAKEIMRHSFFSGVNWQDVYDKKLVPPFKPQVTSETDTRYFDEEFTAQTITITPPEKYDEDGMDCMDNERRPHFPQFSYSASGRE
T3 sequence (P31749 whole entry): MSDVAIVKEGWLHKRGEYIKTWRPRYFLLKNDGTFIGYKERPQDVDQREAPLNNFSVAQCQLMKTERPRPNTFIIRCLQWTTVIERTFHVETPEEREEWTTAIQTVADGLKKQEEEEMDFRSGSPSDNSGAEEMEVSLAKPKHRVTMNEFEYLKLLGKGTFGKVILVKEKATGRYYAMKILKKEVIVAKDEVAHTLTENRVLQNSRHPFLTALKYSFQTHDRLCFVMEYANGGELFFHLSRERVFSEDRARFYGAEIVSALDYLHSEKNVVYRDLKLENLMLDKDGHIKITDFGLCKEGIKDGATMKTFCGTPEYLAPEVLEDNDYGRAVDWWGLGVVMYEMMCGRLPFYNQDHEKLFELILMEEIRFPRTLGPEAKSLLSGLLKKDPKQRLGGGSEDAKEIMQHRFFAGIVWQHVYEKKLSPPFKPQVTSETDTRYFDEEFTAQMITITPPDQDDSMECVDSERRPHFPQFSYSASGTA
T1 sequence (P31751 whole entry): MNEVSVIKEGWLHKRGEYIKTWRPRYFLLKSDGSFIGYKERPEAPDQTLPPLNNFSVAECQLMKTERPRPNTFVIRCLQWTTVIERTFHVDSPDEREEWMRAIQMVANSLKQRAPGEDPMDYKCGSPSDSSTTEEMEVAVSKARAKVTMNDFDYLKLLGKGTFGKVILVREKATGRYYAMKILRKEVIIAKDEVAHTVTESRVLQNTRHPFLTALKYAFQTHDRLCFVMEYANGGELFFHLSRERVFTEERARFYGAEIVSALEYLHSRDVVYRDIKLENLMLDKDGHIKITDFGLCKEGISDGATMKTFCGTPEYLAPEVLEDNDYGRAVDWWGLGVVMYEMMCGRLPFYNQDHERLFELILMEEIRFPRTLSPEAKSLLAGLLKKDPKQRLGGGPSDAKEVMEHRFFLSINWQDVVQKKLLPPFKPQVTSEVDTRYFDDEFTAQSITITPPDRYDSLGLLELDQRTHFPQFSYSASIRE

In the case of `CC(C)OCc1cnn(C)c1-c1ccc2c(c1)CN([C@H](CN)Cc1cccc(F)c1)C2=O` [Example 6, 2-[(1S)-2-amino-1-(3-fluorobenzyl)ethyl]-5-[4-(2-propoxymethyl)-1-methyl-1H-pyrazol-5-yl]isoindolin-1-one], the half-maximal inhibitory concentration (IC50) in assay [1] (setting [2]) is under 500 nM; on Full length Akt2 it was under 500 nM; against Full length Akt3, under 500 nM; against Full length Akt1, under 500 nM; at Full length PKA, over 5 µM.
As for `Cn1ncc(Cl)c1-c1ccc2c(c1)CN([C@H](CN)CC1CCCCC1)C2=O` [Example 132, 2-[(1S)-2-amino-1-(cyclohexylmethyl)ethyl]-5-(4-chloro-1-methyl-1H-pyrazol-5-yl)isoindolin-1-one], the IC50 in assay [1] (setting [2]) was under 500 nM; on Full length Akt2 it was under 500 nM; against Full length Akt3, under 500 nM; against Full length Akt1 it was under 500 nM; against Full length PKA, 0.5 to 5 µM.
`COCc1cnn(C)c1-c1ccc2c(c1)CN([C@H](CN)Cc1cccc(F)c1)C2=O` [Example 4, 2-[(1S)-2-amino-1-(3-fluorobenzyl)ethyl]-5-(4-methoxymethyl-1-methyl-1H-pyrazol-5-yl)isoindolin-1-one]: the half-inhibitory concentration (IC50) in assay [1] (setting [2]) was under 500 nM; against Full length Akt2 it was under 500 nM; at Full length Akt3, under 500 nM; on Full length Akt1, under 500 nM; on Full length PKA, over 5 µM.
In the case of `CC(C)OCc1cnn(C)c1-c1ccc2c(c1)CN([C@H](CN)Cc1cc(F)cc(F)c1)C2=O` [Example 45, 2-[(1S)-2-amino-1-(3,5-difluorobenzyl)ethyl]-5-[4-(2-propoxymethyl)-1-methyl-1H-pyrazol-5-yl]isoindolin-1-one], the concentration for half-maximal inhibition (IC50) in assay [1] (setting [2]) was under 500 nM; at Full length Akt2, under 500 nM; at Full length Akt3, under 500 nM; at Full length Akt1 it was under 500 nM; against Full length PKA it was 0.5 to 5 µM.
Consider `Cn1ncc(F)c1-c1ccc2c(c1)CN([C@H](CN)Cc1cc(F)cc(F)c1)C2=O` [Example 51, 2-[(1S)-2-amino-1-(3,5-difluorobenzyl)ethyl]-5-(4-fluoro-1-methyl-1H-pyrazol-5-yl)isoindolin-1-one], for which the half-maximal inhibitory concentration (IC50) in assay [1] (setting [2]) is under 500 nM; at Full length Akt2, under 500 nM; on Full length Akt3 it was under 500 nM; against Full length Akt1, under 500 nM; on Full length PKA, under 0.5 µM.
In the case of `Cn1ncc(Cl)c1-c1cc2c(cn1)C(=O)N([C@H](CN)Cc1ccccc1)C2` [Example 100, 2-((1S)-2-amino-1-benzylethyl)-6-(4-chloro-1-methyl-1H-pyrazol-5-yl)-1,2-dihydro-3H-pyrrolo[3,4-c]pyridin-3-one], the IC50 in assay [1] (setting [2]) was under 500 nM; against Full length Akt2, under 500 nM; against Full length Akt3, under 500 nM; against Full length Akt1 it was under 500 nM; against Full length PKA, 0.5 to 5 µM.
As for `CCn1nccc1-c1ccc2c(c1)CN([C@H](CN)Cc1cc(F)cc(F)c1)C2=O` [Example 128, 2-[(1S)-2-amino-1-(3,5-difluorobenzyl)ethyl]-5-(1-ethyl-1H-pyrazol-5-yl)isoindolin-1-one], the IC50 in assay [1] (setting [2]) was under 500 nM; against Full length Akt2 it was under 500 nM; at Full length Akt3 it was under 500 nM; at Full length Akt1 it was under 500 nM; on Full length PKA, over 5 µM.
Take `Cn1ncc(Cl)c1-c1ccc2c(c1)CN([C@H](CN)Cc1cccs1)C2=O` [Example 67, 2-[(1S)-2-amino-1-(2-thienylmethyl)ethyl]-5-(4-chloro-1-methyl-1H-pyrazol-5-yl)isoindolin-1-one]: the 50% inhibitory concentration (IC50) is under 500 nM in assay [1] (setting [2]); under 500 nM on Full length Akt2; under 500 nM at Full length Akt3; under 500 nM against Full length Akt1; 0.5 to 5 µM at Full length PKA.
For `Cn1nccc1-c1ccc2c(c1)CN([C@H](CN)Cc1cccc(C#N)c1)C2=O` [Example 75, 3-{(2S)-3-amino-2-[5-(1-methyl-1H-pyrazol-5-yl)-1-oxo-1,3-dihydro-2H-isoindol-2-yl]propyl}benzonitrile], the IC50 in assay [1] (setting [2]) was under 500 nM; at Full length Akt2 it was under 500 nM; at Full length Akt3, 500 to 5000 nM; against Full length Akt1, 500 to 5000 nM; on Full length PKA it was over 5 µM.
As for `Cn1ncc(Cl)c1-c1cc2c(cn1)C(=O)N([C@H](CN)Cc1cccc(F)c1)C2` [Example 92, 2-[(1S)-2-amino-1-(3-fluorobenzyl)ethyl]-6-(4-chloro-1-methyl-1H-pyrazol-5-yl)-1,2-dihydro-3H-pyrrolo[3,4-c]pyridin-3-one], the IC50 in assay [1] (setting [2]) is under 500 nM; at Full length Akt2, under 500 nM; against Full length Akt3, under 500 nM; on Full length Akt1, under 500 nM; against Full length PKA it was 0.5 to 5 µM.
As for `CC(C)Cn1nccc1-c1ccc2c(c1)CN([C@H](CN)Cc1cccc(F)c1)C2=O` [Example 129, 2-[(1S)-2-amino-1-(3-fluorobenzyl)ethyl]-5-(1-isobutyl-1H-pyrazol-5-yl)isoindolin-1-one], the IC50 in assay [1] (setting [3]) was over 1000 nM; on Full length Akt2, over 5000 nM; on Full length Akt3, over 5000 nM; against Full length Akt1, 500 to 5000 nM; at Full length PKA, over 5 µM.
Take `Cn1ncc(F)c1-c1ccc2c(c1)CN([C@H](CN)Cc1cccc(F)c1)C2=O` [Example 11, 2-[(1S)-2-amino-1-(3-fluorobenzyl)ethyl]-5-(4-fluoro-1-methyl-1H-pyrazol-5-yl)isoindolin-1-one]: the IC50 in assay [1] (setting [2]) was under 500 nM; at Full length Akt2 it was under 500 nM; on Full length Akt3, under 500 nM; against Full length Akt1 it was under 500 nM; on Full length PKA, 0.5 to 5 µM.
In the case of `COCc1cnn(C)c1-c1ccc2c(c1)CN([C@H](CN)Cc1cc(F)cc(F)c1)C2=O` [Example 43, 2-[(1S)-2-amino-1-(3,5-difluorobenzyl)ethyl]-5-(4-methoxymethyl-1-methyl-1H-pyrazol-5-yl)isoindolin-1-one], the IC50 in assay [1] (setting [2]) is under 500 nM; on Full length Akt2, under 500 nM; on Full length Akt3 it was under 500 nM; on Full length Akt1 it was under 500 nM; at Full length PKA it was over 5 µM.
Take `CCCOCc1cnn(C)c1-c1ccc2c(c1)CN([C@H](CN)Cc1cc(F)cc(F)c1)C2=O` [Example 46, 2-[(1S)-2-amino-1-(3,5-difluorobenzyl)ethyl]-5-[4-(1-propoxymethyl)-1-methyl-1H-pyrazol-5-]isoindolin-1-one]: the concentration for half-maximal inhibition (IC50) was under 500 nM in assay [1] (setting [2]); under 500 nM against Full length Akt2; under 500 nM against Full length Akt3; under 500 nM at Full length Akt1; 0.5 to 5 µM on Full length PKA.
For the molecule `Cn1ncc(COCC2CC2)c1-c1ccc2c(c1)CN([C@H](CN)Cc1cc(F)cc(F)c1)C2=O` [Example 48, 2-[(1S)-2-amino-1-(3,5-difluorobenzyl)ethyl]-5-[4-(cyclopropylmethoxymethyl)-1-methyl-1H-pyrazol-5-yl]isoindolin-1-one], the half-maximal inhibitory concentration (IC50) in assay [1] (setting [2]) is under 500 nM; at Full length Akt2, under 500 nM; on Full length Akt3, under 500 nM; against Full length Akt1, under 500 nM; at Full length PKA, 0.5 to 5 µM.
On to `Cn1ncc(Cl)c1-c1ccc2c(c1)CN([C@H](CN)Cc1cccc(-c3cccnc3)c1)C2=O` [Example 73, 2-[(1S)-2-amino-1-(3-pyridin-3-ylbenzyl)ethyl]-5-(4-chloro-1-methyl-1H-pyrazol-5-yl)isoindolin-1-one], for which the IC50 is over 1000 nM in assay [1] (setting [3]); over 5000 nM against Full length Akt2; 500 to 5000 nM on Full length Akt3; 500 to 5000 nM at Full length Akt1; over 5 µM at Full length PKA.
For the molecule `Cn1ncc(Cl)c1-c1ccc2c(c1)CN([C@H](CN)Cc1cccc(-c3cncnc3)c1)C2=O` [Example 74, 2-[(1S)-2-amino-1-(3-pyrimidin-5-ylbenzyl)ethyl]-5-(4-chloro-1-methyl-1H-pyrazol-5-yl)isoindolin-1-one], the half-maximal inhibitory concentration (IC50) in assay [1] (setting [3]) was over 1000 nM; against Full length Akt2, over 5000 nM; at Full length Akt3 it was over 5000 nM; against Full length Akt1, 500 to 5000 nM; on Full length PKA it was over 5 µM.
Turning to `CCSCc1cnn(C)c1-c1ccc2c(c1)CN([C@H](CN)Cc1cc(F)cc(F)c1)C2=O` [Example 50, 2-[(1S)-2-amino-1-(3,5-difluorobenzyl)ethyl]-5-[4-(ethylthio)methyl-1-methyl-1H-pyrazol-5-yl]isoindolin-1-one], the IC50 in assay [1] (setting [2]) was under 500 nM; at Full length Akt2, under 500 nM; against Full length Akt3 it was under 500 nM; on Full length Akt1, under 500 nM; against Full length PKA it was over 5 µM.
